Results as given in patent publication US20230398130A1, “METHODS AND COMPOSITIONS FOR DIFFERENTIATING STEM CELLS” (Massachusetts Institute of Technology, priority 2020, published 2023).

How the values were obtained:
ISC-enriched organoids [1] = assay: Primary screen, 384-well 2.5-D organoid differentiation (ENR+CD, 6 days, Target Selective Inhibitor Library, vs whole-plate median): ATP (CellTiter-Glo 3D, CTG); conditions: for SSMD.CTG: strictly standardized mean difference; for Dose.FC.CTG: FC vs plate median
ISC-enriched organoids [2] = assay: Primary screen, 384-well 2.5-D organoid differentiation (ENR+CD, 6 days): basal lysozyme secretion (LYZ.NS); format: cell-based, murine; conditions: primary screen; for SSMD.LYZ.NS: strictly standardized mean difference; for Dose.FC.LYZ.NS: FC vs plate median; for Z.LYZ.NS: standard z score
Excerpt: (§1) High-throughput screening.

ISC-enriched organoids [3] = assay: Primary screen, 384-well 2.5-D organoid differentiation (ENR+CD, 6 days): carbachol-induced lysozyme secretion (LYZ.S); format: cell-based, murine; conditions: primary screen; for Z.LYZ.S: standard z score; for SSMD.LYZ.S: strictly standardized mean difference; for Dose.FC.LYZ.S: FC vs plate median
Excerpt: as §1

[4] = Dose 0.08 uM, primary screen, standard z score
[5] = Dose 0.40 uM, primary screen, standard z score
[6] = Dose 2.00 uM, primary screen, standard z score
[7] = Dose 10.00 uM, primary screen, standard z score
[8] = primary screen, 1st of the 4 dose lines of the treatment (dose not given)
[9] = primary screen, 2nd of the 4 dose lines of the treatment (dose not given)
[10] = primary screen, 3rd of the 4 dose lines of the treatment (dose not given)
[11] = primary screen, 4th of the 4 dose lines of the treatment (dose not given)
[12] = 1st of the 4 dose lines of the treatment (dose not given)
[13] = 2nd of the 4 dose lines of the treatment (dose not given)
[14] = 3rd of the 4 dose lines of the treatment (dose not given)
[15] = 4th of the 4 dose lines of the treatment (dose not given)

Row | SMILES | Z.CTG (ISC-enriched organoids [1]; [4]) | Z.CTG (ISC-enriched organoids [1]; [5]) | Z.CTG (ISC-enriched organoids [1]; [6]) | Z.CTG (ISC-enriched organoids [1]; [7]) | SSMD.CTG (ISC-enriched organoids [1]; [8]) | SSMD.CTG (ISC-enriched organoids [1]; [9]) | SSMD.CTG (ISC-enriched organoids [1]; [10]) | SSMD.CTG (ISC-enriched organoids [1]; [11]) | SSMD.LYZ.NS (ISC-enriched organoids [2]; [12]) | SSMD.LYZ.NS (ISC-enriched organoids [2]; [13]) | SSMD.LYZ.NS (ISC-enriched organoids [2]; [14]) | SSMD.LYZ.NS (ISC-enriched organoids [2]; [15]) | Z.LYZ.S (ISC-enriched organoids [3]; [12]) | Z.LYZ.S (ISC-enriched organoids [3]; [13]) | Z.LYZ.S (ISC-enriched organoids [3]; [14]) | Z.LYZ.S (ISC-enriched organoids [3]; [15]) | SSMD.LYZ.S (ISC-enriched organoids [3]; [12]) | SSMD.LYZ.S (ISC-enriched organoids [3]; [13]) | SSMD.LYZ.S (ISC-enriched organoids [3]; [14]) | SSMD.LYZ.S (ISC-enriched organoids [3]; [15]) | other results
1 | N#Cc1ccc(C(c2ccc(C#N)cc2)n2cncn2)cc1 [Letrozole] | −0.031 | 0.241 | 0.236 | 0.408 | −0.043 | 0.336 | 0.288 | 0.606 | 0.554 | 1.104 | 0.063 | −0.042 | 0.258 | 0.970 | 0.038 | 0.040 | 0.212 | 0.764 | 0.041 | 0.028 | 
2 | CCN1CCC[C@H]1CNC(=O)c1cc(S(N)(=O)=O)ccc1OC [Levosulpiride] | −0.102 | −0.015 | 0.074 | 0.215 | −0.129 | −0.019 | 0.087 | 0.297 | 0.092 | 0.226 | 0.501 | −0.195 | −0.108 | 0.830 | 0.800 | −0.168 | −0.076 | 0.774 | 0.531 | −0.154 | 
3 | CCN(CC)CC(=O)Nc1c(C)cccc1C [Lidocaine] | −0.188 | −0.365 | 0.081 | −0.611 | −0.237 | −0.371 | 0.116 | −0.889 | 0.904 | 0.132 | 0.008 | 0.183 | 0.537 | 0.167 | −0.244 | −0.061 | 0.448 | 0.197 | −0.268 | −0.070 | 
4 | CC#CCn1c(N2CCC[C@@H](N)C2)nc2c1c(=O)n(Cc1nc(C)c3ccccc3n1)c(=O)n2C [Linagliptin] | 0.389 | 0.499 | 0.054 | −0.027 | 0.299 | 0.612 | 0.047 | −0.025 | 1.046 | 0.306 | 0.118 | 0.671 | 0.905 | 0.305 | −0.204 | 0.322 | 0.797 | 0.215 | −0.126 | 0.374 | 
5 | Nc1nc(OCc2cc(Br)cs2)c2[nH]cnc2n1 [Lomeguatrib] | −1.017 | −0.739 | 0.178 | −0.192 | −0.489 | −0.422 | 0.193 | −0.190 | −0.474 | −0.137 | −0.189 | −1.038 | −0.528 | −0.139 | −0.356 | −0.893 | −0.435 | −0.121 | −0.346 | −0.820 | 
6 | CCOC(=O)N1CCC(=C2c3ccc(Cl)cc3CCc3cccnc32)CC1 [Loratadine] | −0.697 | 0.347 | −0.488 | −0.287 | −0.683 | 0.535 | −0.609 | −0.360 | 0.098 | −0.004 | −0.783 | −0.977 | −0.490 | 0.069 | −0.959 | −0.956 | −0.535 | 0.082 | −0.811 | −1.029 | 
7 | CCCCc1nc(Cl)c(CO)n1Cc1ccc(-c2ccccc2-c2nnn[n-]2)cc1.[K+] [Losartan Potassium (DuP 753)] | −0.362 | −0.418 | −0.193 | −0.328 | −0.338 | −0.304 | −0.274 | −0.390 | 0.273 | 0.263 | −0.341 | 0.423 | −0.112 | 0.173 | −0.519 | −0.164 | −0.104 | 0.194 | −0.616 | −0.185 | Dose.FC.CTG (ISC-enriched organoids [1]; Dose 0.08 uM, primary screen): −0.152 log 2 fold change; Dose.FC.CTG (ISC-enriched organoids [1]; Dose 0.40 uM, primary screen): −0.175 log 2 fold change; Dose.FC.CTG (ISC-enriched organoids [1]; Dose 2.00 uM, primary screen): −0.081 log 2 fold change; Dose.FC.CTG (ISC-enriched organoids [1]; Dose 10.00 uM, primary screen): −0.137 log 2 fold change; Dose.FC.LYZ.NS (ISC-enriched organoids [2]; Dose 0.08 uM): 0.052 log 2 fold change; Z.LYZ.NS (ISC-enriched organoids [2]; Dose 0.08 uM): 0.449; Dose.FC.LYZ.NS (ISC-enriched organoids [2]; Dose 0.40 uM): 0.038 log 2 fold change; Z.LYZ.NS (ISC-enriched organoids [2]; Dose 0.40 uM): 0.329; Dose.FC.LYZ.NS (ISC-enriched organoids [2]; Dose 2.00 uM): −0.042 log 2 fold change; Z.LYZ.NS (ISC-enriched organoids [2]; Dose 2.00 uM): −0.362; Dose.FC.LYZ.NS (ISC-enriched organoids [2]; Dose 10.00 uM): 0.062 log 2 fold change; Z.LYZ.NS (ISC-enriched organoids [2]; Dose 10.00 uM): 0.540; Dose.FC.LYZ.S (ISC-enriched organoids [3]; Dose 0.08 uM): −0.017 log 2 fold change; Dose.FC.LYZ.S (ISC-enriched organoids [3]; Dose 0.40 uM): 0.027 log 2 fold change; Dose.FC.LYZ.S (ISC-enriched organoids [3]; Dose 2.00 uM): −0.080 log 2 fold change; Dose.FC.LYZ.S (ISC-enriched organoids [3]; Dose 10.00 uM): −0.025 log 2 fold change
8 | CC[C@H](C)C(=O)O[C@H]1C[C@@H](C)C=C2C=C[C@H](C)[C@H](CC[C@@H]3C[C@@H](O)CC(=O)O3)[C@H]21 [Lovastatin] | −0.769 | −1.174 | −2.803 | −3.322 | −0.609 | −1.511 | −2.978 | −1.911 | 0.014 | −0.516 | −1.430 | −1.590 | −0.147 | −0.320 | −2.572 | −2.645 | −0.128 | −0.236 | −1.424 | −1.288 | 
9 | CC(C)CCNC(=O)[C@H](CC(C)C)NC(=O)[C@H]1O[C@@H]1C(=O)O [Loxistatin Acid (E-64C)] | 0.206 | 0.373 | 0.191 | 0.224 | 0.218 | 0.402 | 0.176 | 0.270 | 0.757 | 0.330 | 0.411 | 0.027 | 0.808 | 0.677 | 0.238 | 0.138 | 0.833 | 0.449 | 0.159 | 0.141 | Dose.FC.CTG (ISC-enriched organoids [1]; Dose 0.08 uM, primary screen): 0.086 log 2 fold change; Dose.FC.CTG (ISC-enriched organoids [1]; Dose 0.40 uM, primary screen): 0.156 log 2 fold change; Dose.FC.CTG (ISC-enriched organoids [1]; Dose 2.00 uM, primary screen): 0.080 log 2 fold change; Dose.FC.CTG (ISC-enriched organoids [1]; Dose 10.00 uM, primary screen): 0.094 log 2 fold change; Dose.FC.LYZ.NS (ISC-enriched organoids [2]; Dose 0.08 uM): 0.147 log 2 fold change; Z.LYZ.NS (ISC-enriched organoids [2]; Dose 0.08 uM): 1.283; Dose.FC.LYZ.NS (ISC-enriched organoids [2]; Dose 0.40 uM): 0.061 log 2 fold change; Z.LYZ.NS (ISC-enriched organoids [2]; Dose 0.40 uM): 0.534; Dose.FC.LYZ.NS (ISC-enriched organoids [2]; Dose 2.00 uM): 0.055 log 2 fold change; Z.LYZ.NS (ISC-enriched organoids [2]; Dose 2.00 uM): 0.482; Dose.FC.LYZ.NS (ISC-enriched organoids [2]; Dose 10.00 uM): 0.004 log 2 fold change; Z.LYZ.NS (ISC-enriched organoids [2]; Dose 10.00 uM): 0.031; Dose.FC.LYZ.S (ISC-enriched organoids [3]; Dose 0.08 uM): 0.125 log 2 fold change; Dose.FC.LYZ.S (ISC-enriched organoids [3]; Dose 0.40 uM): 0.105 log 2 fold change; Dose.FC.LYZ.S (ISC-enriched organoids [3]; Dose 2.00 uM): 0.037 log 2 fold change; Dose.FC.LYZ.S (ISC-enriched organoids [3]; Dose 10.00 uM): 0.021 log 2 fold change
10 | C=CCn1c(=O)c2cnc(Nc3ccc(N4CCN(C)CC4)cc3)nc2n1-c1cccc(C(C)(C)O)n1 [MK-1775] |  |  |  |  | 0.536 | −1.242 | −1.697 | −1.818 | 0.317 | −1.150 | −1.545 | −0.993 | 0.424 | −1.404 | −1.345 | −1.643 | 0.440 | −1.378 | −1.357 | −1.331 | Z.CTG (ISC-enriched organoids [1]; Dose 0.08 uM, standard z score of FC): 0.393; Z.CTG (ISC-enriched organoids [1]; Dose 0.40 uM, standard z score of FC): −1.074; Z.CTG (ISC-enriched organoids [1]; Dose 2.00 uM, standard z score of FC): −1.919; Z.CTG (ISC-enriched organoids [1]; Dose 10.00 uM, standard z score of FC): −2.451
